# Measurements: PubChem BioAssay (NCI)
#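 How tested: cells in 96-well plates exposed to compound for 48 hours at five concentrations. TGI denotes the concentration required for complete inhibition of growth.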
# Legend:
# Experiment in all cases: inhibition of tumour cell growth, NCI panel, 48 h
# 786-0 renal = system: 786-0 renal
# A498 renal = system: A498 renal
# A549 NSCLC = system: A549 NSCLC
# ACHN renal = system: ACHN renal
# BT-549 breast = system: BT-549 breast
# CAKI-1 renal = system: CAKI-1 renal
# CCRF-CEM leukemia = system: CCRF-CEM leukemia
# COLO 205 colon = system: COLO 205 colon
# DU-145 prostate = system: DU-145 prostate
# EKVX NSCLC = system: EKVX NSCLC
# HCC-2998 colon = system: HCC-2998 colon
# HCT-116 colon = system: HCT-116 colon
# HCT-15 colon = system: HCT-15 colon
# HL-60(TB) leukemia = system: HL-60(TB) leukemia
# HOP-62 NSCLC = system: HOP-62 NSCLC
# HOP-92 NSCLC = system: HOP-92 NSCLC
# HS 578T breast = system: HS 578T breast
# HT29 colon = system: HT29 colon
# IGROV1 ovarian = system: IGROV1 ovarian
# K-562 leukemia = system: K-562 leukemia
# KM12 colon = system: KM12 colon
# LOX IMVI melanoma = system: LOX IMVI melanoma
# M14 melanoma = system: M14 melanoma
# MALME-3M melanoma = system: MALME-3M melanoma
# MCF7 breast = system: MCF7 breast
# MDA-MB-231 breast = system: MDA-MB-231 breast
# MDA-MB-435 = system: MDA-MB-435
# MDA-N = system: MDA-N
# MOLT-4 leukemia = system: MOLT-4 leukemia
# NCI-H226 lung = system: NCI-H226 lung
# NCI-H23 lung = system: NCI-H23 lung
# NCI-H460 lung = system: NCI-H460 lung
# NCI-H522 lung = system: NCI-H522 lung
# NCI/ADR-RES ovarian = system: NCI/ADR-RES ovarian
# OVCAR-3 ovarian = system: OVCAR-3 ovarian
# OVCAR-4 ovarian = system: OVCAR-4 ovarian
# OVCAR-5 ovarian = system: OVCAR-5 ovarian
# OVCAR-8 ovarian = system: OVCAR-8 ovarian
# PC-3 prostate = system: PC-3 prostate
# RPMI-8226 leukemia = system: RPMI-8226 leukemia
# RXF 393 renal = system: RXF 393 renal
# SF-268 CNS = system: SF-268 CNS
# SF-295 CNS = system: SF-295 CNS
# SF-539 CNS = system: SF-539 CNS
# SK-MEL-2 melanoma = system: SK-MEL-2 melanoma
# SK-MEL-28 melanoma = system: SK-MEL-28 melanoma
# SK-MEL-5 melanoma = system: SK-MEL-5 melanoma
# SK-OV-3 ovarian = system: SK-OV-3 ovarian
# SN12C renal = system: SN12C renal
# SNB-19 CNS = system: SNB-19 CNS
# SNB-75 CNS = system: SNB-75 CNS
# SR leukemia = system: SR leukemia
# SW-620 colon = system: SW-620 colon
# T-47D breast = system: T-47D breast
# TK-10 renal = system: TK-10 renal
# U251 CNS = system: U251 CNS
# UACC-257 melanoma = system: UACC-257 melanoma
# UACC-62 melanoma = system: UACC-62 melanoma
# UO-31 renal = system: UO-31 renal
# DLD-1 colon = system: DLD-1 colon
# DMS 114 small cell lung = system: DMS 114 small cell lung
# DMS 273 small cell lung = system: DMS 273 small cell lung
# HOP-18 NSCLC = system: HOP-18 NSCLC
# KM20L2 colon = system: KM20L2 colon
# LXFL 529 NSCLC = system: LXFL 529 NSCLC
# M19-MEL melanoma = system: M19-MEL melanoma
# SNB-78 CNS = system: SNB-78 CNS
structure (smiles),measurement,setting,value
Cc1ccc(N=Nc2ccc(O)c(CN(C)C)c2)cc1,TGI,786-0 renal,54.7 µM
same,TGI,A498 renal,40.2 µM
same,TGI,A549 NSCLC,49.4 µM
same,TGI,ACHN renal,41.8 µM
same,TGI,BT-549 breast,79.9 µM
same,TGI,CAKI-1 renal,61.3 µM
same,TGI,CCRF-CEM leukemia,63 µM
same,TGI,COLO 205 colon,35.2 µM
same,TGI,DU-145 prostate,47.3 µM
same,TGI,EKVX NSCLC,51.9 µM
same,TGI,HCC-2998 colon,29.5 µM
same,TGI,HCT-116 colon,51.8 µM
same,TGI,HCT-15 colon,50.2 µM
same,TGI,HL-60(TB) leukemia,41.3 µM
same,TGI,HOP-62 NSCLC,26.3 µM
same,TGI,HOP-92 NSCLC,67.7 µM
same,TGI,HS 578T breast,41.9 µM
same,TGI,HT29 colon,32.3 µM
same,TGI,IGROV1 ovarian,35 µM
same,TGI,K-562 leukemia,39.6 µM
same,TGI,KM12 colon,37.9 µM
same,TGI,LOX IMVI melanoma,28.6 µM
same,TGI,M14 melanoma,41.6 µM
same,TGI,MALME-3M melanoma,31.2 µM
same,TGI,MCF7 breast,73.9 µM
same,TGI,MDA-MB-231 breast,56.3 µM
same,TGI,MDA-MB-435,32.3 µM
same,TGI,MDA-N,30.6 µM
same,TGI,MOLT-4 leukemia,53.4 µM
same,TGI,NCI-H226 lung,49.4 µM
same,TGI,NCI-H23 lung,> 100 µM
same,TGI,NCI-H460 lung,33.8 µM
same,TGI,NCI-H522 lung,32.6 µM
same,TGI,NCI/ADR-RES ovarian,53.7 µM
same,TGI,OVCAR-3 ovarian,31.8 µM
same,TGI,OVCAR-4 ovarian,53.5 µM
same,TGI,OVCAR-5 ovarian,29.7 µM
same,TGI,OVCAR-8 ovarian,42.3 µM
same,TGI,PC-3 prostate,54.7 µM
same,TGI,RPMI-8226 leukemia,48 µM
same,TGI,RXF 393 renal,34.2 µM
same,TGI,SF-268 CNS,91.7 µM
same,TGI,SF-295 CNS,33.7 µM
same,TGI,SF-539 CNS,33.3 µM
same,TGI,SK-MEL-2 melanoma,37.7 µM
same,TGI,SK-MEL-28 melanoma,41.1 µM
same,TGI,SK-MEL-5 melanoma,28 µM
same,TGI,SK-OV-3 ovarian,85.3 µM
same,TGI,SN12C renal,> 100 µM
same,TGI,SNB-19 CNS,> 100 µM
same,TGI,SNB-75 CNS,75.1 µM
same,TGI,SR leukemia,> 100 µM
same,TGI,SW-620 colon,70.1 µM
same,TGI,T-47D breast,39.5 µM
same,TGI,TK-10 renal,44.5 µM
same,TGI,U251 CNS,> 100 µM
same,TGI,UACC-257 melanoma,32.3 µM
same,TGI,UACC-62 melanoma,44.3 µM
same,TGI,UO-31 renal,54.1 µM
Nc1ccn(C2CCC(CO)O2)c(=S)n1 (centres undefined),TGI,786-0 renal,> 100 µM
same,TGI,A498 renal,> 100 µM
same,TGI,A549 NSCLC,> 100 µM
same,TGI,ACHN renal,> 100 µM
same,TGI,BT-549 breast,> 100 µM
same,TGI,CAKI-1 renal,> 100 µM
same,TGI,CCRF-CEM leukemia,> 100 µM
same,TGI,COLO 205 colon,> 100 µM
same,TGI,DU-145 prostate,> 100 µM
same,TGI,EKVX NSCLC,> 100 µM
same,TGI,HCC-2998 colon,> 100 µM
same,TGI,HCT-116 colon,> 100 µM
same,TGI,HCT-15 colon,> 100 µM
same,TGI,HL-60(TB) leukemia,> 100 µM
same,TGI,HOP-62 NSCLC,> 100 µM
same,TGI,HOP-92 NSCLC,> 100 µM
same,TGI,HS 578T breast,> 100 µM
same,TGI,HT29 colon,> 100 µM
same,TGI,IGROV1 ovarian,> 100 µM
same,TGI,K-562 leukemia,> 100 µM
same,TGI,KM12 colon,> 100 µM
same,TGI,LOX IMVI melanoma,> 100 µM
same,TGI,M14 melanoma,> 100 µM
same,TGI,MALME-3M melanoma,> 100 µM
same,TGI,MCF7 breast,> 100 µM
same,TGI,MDA-MB-231 breast,> 100 µM
same,TGI,MDA-MB-435,> 100 µM
same,TGI,MDA-N,> 100 µM
same,TGI,MOLT-4 leukemia,> 100 µM
same,TGI,NCI-H226 lung,> 100 µM
same,TGI,NCI-H23 lung,> 100 µM
same,TGI,NCI-H460 lung,> 100 µM
same,TGI,NCI-H522 lung,> 100 µM
same,TGI,NCI/ADR-RES ovarian,> 100 µM
same,TGI,OVCAR-3 ovarian,> 100 µM
same,TGI,OVCAR-5 ovarian,> 100 µM
same,TGI,OVCAR-8 ovarian,> 100 µM
same,TGI,PC-3 prostate,> 100 µM
same,TGI,RPMI-8226 leukemia,> 100 µM
same,TGI,RXF 393 renal,> 100 µM
same,TGI,SF-268 CNS,> 100 µM
same,TGI,SF-295 CNS,> 100 µM
same,TGI,SF-539 CNS,> 100 µM
same,TGI,SK-MEL-2 melanoma,> 100 µM
same,TGI,SK-MEL-5 melanoma,> 100 µM
same,TGI,SK-OV-3 ovarian,> 100 µM
same,TGI,SN12C renal,> 100 µM
same,TGI,SNB-19 CNS,> 100 µM
same,TGI,SNB-75 CNS,> 100 µM
same,TGI,SR leukemia,> 100 µM
same,TGI,SW-620 colon,> 100 µM
same,TGI,T-47D breast,> 100 µM
same,TGI,TK-10 renal,> 100 µM
same,TGI,U251 CNS,> 100 µM
same,TGI,UACC-257 melanoma,> 100 µM
same,TGI,UACC-62 melanoma,> 100 µM
same,TGI,UO-31 renal,> 100 µM
O=C1CCC2CC(C(=O)c3ccccc3)CCC2CN1 (centres undefined) (tested in a mixture with another compound),TGI,786-0 renal,> 100 µM
same,TGI,A549 NSCLC,> 100 µM
same,TGI,ACHN renal,> 100 µM
same,TGI,CAKI-1 renal,> 100 µM
same,TGI,CCRF-CEM leukemia,> 100 µM
same,TGI,COLO 205 colon,> 100 µM
same,TGI,DLD-1 colon,> 100 µM
same,TGI,DMS 114 small cell lung,> 100 µM
same,TGI,DMS 273 small cell lung,> 100 µM
same,TGI,EKVX NSCLC,> 100 µM
same,TGI,HCC-2998 colon,> 100 µM
same,TGI,HCT-116 colon,> 100 µM
same,TGI,HCT-15 colon,> 100 µM
same,TGI,HL-60(TB) leukemia,> 100 µM
same,TGI,HOP-18 NSCLC,> 100 µM
same,TGI,HOP-62 NSCLC,> 100 µM
same,TGI,HT29 colon,> 100 µM
same,TGI,IGROV1 ovarian,> 100 µM
same,TGI,K-562 leukemia,> 100 µM
same,TGI,KM12 colon,> 100 µM
same,TGI,KM20L2 colon,> 100 µM
same,TGI,LXFL 529 NSCLC,> 100 µM
same,TGI,M14 melanoma,> 100 µM
same,TGI,M19-MEL melanoma,> 100 µM
same,TGI,MALME-3M melanoma,> 100 µM
same,TGI,MOLT-4 leukemia,> 100 µM
same,TGI,NCI-H226 lung,> 100 µM
same,TGI,NCI-H23 lung,> 100 µM
same,TGI,NCI-H460 lung,> 100 µM
same,TGI,NCI-H522 lung,> 100 µM
same,TGI,OVCAR-3 ovarian,> 100 µM
same,TGI,OVCAR-4 ovarian,> 100 µM
same,TGI,OVCAR-5 ovarian,> 100 µM
same,TGI,OVCAR-8 ovarian,> 100 µM
same,TGI,RPMI-8226 leukemia,> 100 µM
same,TGI,RXF 393 renal,> 100 µM
same,TGI,SF-268 CNS,> 100 µM
same,TGI,SF-295 CNS,> 100 µM
same,TGI,SF-539 CNS,> 100 µM
same,TGI,SK-MEL-2 melanoma,> 100 µM
same,TGI,SK-MEL-28 melanoma,> 100 µM
same,TGI,SK-MEL-5 melanoma,> 100 µM
same,TGI,SK-OV-3 ovarian,> 100 µM
same,TGI,SN12C renal,> 100 µM
same,TGI,SNB-19 CNS,> 100 µM
same,TGI,SNB-75 CNS,> 100 µM
same,TGI,SNB-78 CNS,> 100 µM
same,TGI,SR leukemia,> 100 µM
same,TGI,SW-620 colon,> 100 µM
same,TGI,U251 CNS,> 100 µM
same,TGI,UACC-257 melanoma,> 100 µM
same,TGI,UACC-62 melanoma,> 100 µM
same,TGI,UO-31 renal,> 100 µM
